# Key:
# Assay type in all cases: cell-based, mouse
# [1] = test system: TPPII; experiment: Western blotting of TPPII expression in gamma-irradiated EL-4 cells; details: wortmannin treated gamma-irradiated EL-4 cells, 25 micro-M NLVS
# Text: (§1) Cells and Culture Conditions. EL-4 is a Benzpyrene-induced lymphoma cell line derived from the C57BI/6 mouse strain. EL-4.wt and EL-4.TPPII^i are EL-4 cells transfected with the pSUPER vector (Brummelkamp, T R, Bernards, R, Agami, R. A system for stable expression of short interfering RNAs in mammalian cells. Science 2002; 296:550-3), empty versus containing the siRNA directed against TPPII. HeLa cells are human cervical carcinoma cells. YAC-1 is a Moloney Leukemia Virus-induced lymphoma cell line derived from the A/Sn mouse strain. ALC is a T cell lymphoma induced by radiation leukemia virus D-RadLV, derived from the C57Bl/6 mouse strain. […]
# (§2) Antibodies and Antisera. The following molecules were detected by the antibodies specified: Akt by rabbit anti-Akt serum (Cell Signaling Technology, Beverly, Mass.); Phospho-Akt (Ser 473) by 193H2 rabbit anti-phospho-Akt serum (Cell Signaling Technology, Beverly, Mass.); gamma-H2AX by rabbit anti-gamma-H2AX (Cell Signalling Technology, Beverly, Mass.); Mre11 by polyclonal rabbit anti-human Mre11 (Cell Signalling Technology, Beverly, Mass.); p21 by SX118 (R & D Systems, Minneapolis, Minn.); p53 (R & D Systems, Minneapolis, Minn.); Rae-1 by monoclonal Rat anti-mouse Rae-1, 199215 (R &D Systems, Minneapolis, Minn.); XIAP by monoclonal mouse anti-human XIAP, 117320 (R&D Systems, Minneapolis, Minn.). […]
# [2] = test system: p53; experiment: Western blotting of p53 expression in gamma-irradiated EL-4.TPPIIi cells; details: gamma-irradiated EL-4.TPPIIi cells treated with NLVS
# Text: as §1, §2
# [3] = test system: p53; experiment: Western blotting of p53-immunoprecipitates from EL-4 cell lysates; details: NLVS-treated EL-4.TPPIIi cells
# Text: Antibodies and Antisera. The following molecules were detected by the antibodies specified: Akt by rabbit anti-Akt serum (Cell Signaling Technology, Beverly, Mass.); Phospho-Akt (Ser 473) by 193H2 rabbit anti-phospho-Akt serum (Cell Signaling Technology, Beverly, Mass.); gamma-H2AX by rabbit anti-gamma-H2AX (Cell Signalling Technology, Beverly, Mass.); Mre11 by polyclonal rabbit anti-human Mre11 (Cell Signalling Technology, Beverly, Mass.); p21 by SX118 (R & D Systems, Minneapolis, Minn.); p53 (R & D Systems, Minneapolis, Minn.); Rae-1 by monoclonal Rat anti-mouse Rae-1, 199215 (R &D Systems, Minneapolis, Minn.); XIAP by monoclonal mouse anti-human XIAP, 117320 (R&D Systems, Minneapolis, Minn.). For detection of TPPII we used chicken anti-TPPII serum (Immunsystem, Uppsala, Sweden). Western blotting was performed by standard techniques. Protein concentration was measured by BCA Protein Assay Reagent (Pierce Chemical Co.). 5 micro-g of protein was loaded per lane for separation by SDS/PAGE unless stated otherwise.
smiles,measurement,setting,value
"CC(C)C[C@@H](/C=C/S(C)(=O)=O)NC(=O)[C@H](CC(C)C)NC(=O)[C@H](CC(C)C)NC(=O)Cc1cc(I)c(O)c([N+](=O)[O-])c1 [NLVS, 4-hydroxy-5-iodo-3-nitrophenylacetyl-Leu-Leu-Leu-vinyl sulphone]",down regulation of TPPII,[1],inhibited down regulation of TPPII
same,p53 expression,[2],increased p53 expression
same,"ATM, 53BP1 and Mre11 in p53-immunoprecipitates",[3],"failed to show ATM, 53BP1 and Mre11"

# Reference: patent US20100168038A1, “USE OF COMPOUNDS IN COMBINATION WITH GAMMA-IRRADIATION FOR THE TREATMENT OF CANCER” (priority 2006, published 2010)
